Values of other authors as cited in patent US20230349886A1, “SYSTEMS AND METHODS FOR PREDICTING CARDIOTOXICITY OF MOLECULAR PARAMETERS OF A COMPOUND BASED ON MACHINE LEARNING ALGORITHMS” (UTI Limited Partnership, priority 2015, published 2023).
Read-outs that look alike come from different tables or passages of the source. Peptide text beside a SMILES is read from it.

Legend:
[1] = Brown dataset; flag given as 1 or 0
[2] = biological target: Cav1.2 (Homo sapiens, UniProt Q13936); conditions: Brown dataset; for IC50: read-out: CAV1.2 IC50
[3] = biological target: T1, Nav1.5 (Homo sapiens, UniProt Q14524); conditions: for IC50: read-out: NAV1.5 IC50
[4] = for Free drug concentration: Brown dataset
[5] = biological target: hERG (Homo sapiens, UniProt Q12809); conditions: for pIC50: Table 11, calculated from HERG-IC50 of the Kramer et al. 2013 data; for IC50: read-out: HERG IC50
[6] = biological target: T1, Nav1.5; conditions: Nav1.5 training/test/validation set; 92 actives and 860 inactive compounds; 1 = active

Chain of Cav1.2 (Q13936 1-2138 isoform Q13936-12): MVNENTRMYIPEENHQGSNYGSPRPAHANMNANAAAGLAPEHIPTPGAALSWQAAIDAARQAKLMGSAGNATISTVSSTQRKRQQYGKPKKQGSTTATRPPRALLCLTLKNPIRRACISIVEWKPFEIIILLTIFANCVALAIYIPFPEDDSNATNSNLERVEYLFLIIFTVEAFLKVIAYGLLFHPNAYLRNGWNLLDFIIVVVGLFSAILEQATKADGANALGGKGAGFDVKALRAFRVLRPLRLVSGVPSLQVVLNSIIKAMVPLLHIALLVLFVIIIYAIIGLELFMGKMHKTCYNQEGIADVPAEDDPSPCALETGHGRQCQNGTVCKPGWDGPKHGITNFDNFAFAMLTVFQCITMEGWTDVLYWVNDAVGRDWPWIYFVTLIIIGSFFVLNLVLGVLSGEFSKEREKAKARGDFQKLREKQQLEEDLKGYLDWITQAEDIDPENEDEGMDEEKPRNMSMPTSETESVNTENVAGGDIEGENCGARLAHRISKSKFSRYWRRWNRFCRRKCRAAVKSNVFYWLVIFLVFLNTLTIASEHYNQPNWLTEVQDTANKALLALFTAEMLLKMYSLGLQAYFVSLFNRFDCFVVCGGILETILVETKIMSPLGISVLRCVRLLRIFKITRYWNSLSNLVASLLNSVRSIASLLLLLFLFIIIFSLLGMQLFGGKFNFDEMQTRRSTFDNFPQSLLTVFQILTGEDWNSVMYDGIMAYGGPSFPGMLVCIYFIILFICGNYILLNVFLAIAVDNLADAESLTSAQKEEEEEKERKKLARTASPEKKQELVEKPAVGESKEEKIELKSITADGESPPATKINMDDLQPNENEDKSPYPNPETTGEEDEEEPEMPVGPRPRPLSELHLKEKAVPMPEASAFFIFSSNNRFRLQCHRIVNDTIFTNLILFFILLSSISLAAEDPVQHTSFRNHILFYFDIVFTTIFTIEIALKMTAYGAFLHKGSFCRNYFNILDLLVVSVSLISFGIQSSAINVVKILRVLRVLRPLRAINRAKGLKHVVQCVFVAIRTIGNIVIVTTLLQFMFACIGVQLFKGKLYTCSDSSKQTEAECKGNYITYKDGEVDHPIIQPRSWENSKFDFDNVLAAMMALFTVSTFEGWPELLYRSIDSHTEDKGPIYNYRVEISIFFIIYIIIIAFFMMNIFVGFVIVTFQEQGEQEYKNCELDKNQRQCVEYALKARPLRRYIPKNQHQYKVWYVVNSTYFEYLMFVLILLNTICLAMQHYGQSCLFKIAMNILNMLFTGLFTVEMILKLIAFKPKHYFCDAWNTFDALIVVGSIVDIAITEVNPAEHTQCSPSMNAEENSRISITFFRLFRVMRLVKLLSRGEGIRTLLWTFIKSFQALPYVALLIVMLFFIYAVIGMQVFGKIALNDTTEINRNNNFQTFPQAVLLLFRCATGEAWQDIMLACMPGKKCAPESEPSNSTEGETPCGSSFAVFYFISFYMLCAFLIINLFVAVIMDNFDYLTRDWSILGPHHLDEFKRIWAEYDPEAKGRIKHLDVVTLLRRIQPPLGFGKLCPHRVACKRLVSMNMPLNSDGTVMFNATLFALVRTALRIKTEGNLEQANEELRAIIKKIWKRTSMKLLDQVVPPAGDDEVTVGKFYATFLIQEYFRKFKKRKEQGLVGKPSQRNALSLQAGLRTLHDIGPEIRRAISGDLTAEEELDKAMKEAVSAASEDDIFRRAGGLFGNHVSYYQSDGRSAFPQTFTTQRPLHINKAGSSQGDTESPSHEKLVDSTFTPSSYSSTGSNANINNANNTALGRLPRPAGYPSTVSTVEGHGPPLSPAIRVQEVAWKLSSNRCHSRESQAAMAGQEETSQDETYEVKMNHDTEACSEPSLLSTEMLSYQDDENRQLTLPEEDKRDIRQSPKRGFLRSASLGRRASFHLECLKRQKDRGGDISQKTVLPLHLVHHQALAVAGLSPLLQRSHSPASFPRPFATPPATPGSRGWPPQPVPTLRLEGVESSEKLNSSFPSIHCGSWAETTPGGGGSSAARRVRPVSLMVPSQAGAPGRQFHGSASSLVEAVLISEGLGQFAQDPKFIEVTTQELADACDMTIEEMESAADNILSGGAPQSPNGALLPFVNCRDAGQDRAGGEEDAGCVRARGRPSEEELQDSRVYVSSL
Chain of Cav1.2 (Q08289 whole entry partner): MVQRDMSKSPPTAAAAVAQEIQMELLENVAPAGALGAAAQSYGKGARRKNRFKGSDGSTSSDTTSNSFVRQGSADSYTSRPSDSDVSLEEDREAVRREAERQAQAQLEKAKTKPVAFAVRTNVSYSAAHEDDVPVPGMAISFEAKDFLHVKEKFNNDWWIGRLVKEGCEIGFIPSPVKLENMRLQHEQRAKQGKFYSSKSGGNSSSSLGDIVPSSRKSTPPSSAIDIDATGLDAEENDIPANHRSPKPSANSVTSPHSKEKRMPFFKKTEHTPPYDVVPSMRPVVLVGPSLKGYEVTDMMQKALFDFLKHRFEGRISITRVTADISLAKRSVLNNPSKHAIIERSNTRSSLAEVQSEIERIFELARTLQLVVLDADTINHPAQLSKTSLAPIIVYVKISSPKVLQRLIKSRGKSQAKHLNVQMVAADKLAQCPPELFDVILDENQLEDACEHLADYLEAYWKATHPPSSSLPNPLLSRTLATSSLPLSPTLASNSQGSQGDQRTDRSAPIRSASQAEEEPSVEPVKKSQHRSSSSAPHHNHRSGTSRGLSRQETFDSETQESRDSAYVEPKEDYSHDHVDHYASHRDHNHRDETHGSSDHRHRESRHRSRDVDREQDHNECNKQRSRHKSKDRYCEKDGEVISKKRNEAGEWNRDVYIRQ
Chain of Cav1.2 (P54289 25-946 partner limits assumed): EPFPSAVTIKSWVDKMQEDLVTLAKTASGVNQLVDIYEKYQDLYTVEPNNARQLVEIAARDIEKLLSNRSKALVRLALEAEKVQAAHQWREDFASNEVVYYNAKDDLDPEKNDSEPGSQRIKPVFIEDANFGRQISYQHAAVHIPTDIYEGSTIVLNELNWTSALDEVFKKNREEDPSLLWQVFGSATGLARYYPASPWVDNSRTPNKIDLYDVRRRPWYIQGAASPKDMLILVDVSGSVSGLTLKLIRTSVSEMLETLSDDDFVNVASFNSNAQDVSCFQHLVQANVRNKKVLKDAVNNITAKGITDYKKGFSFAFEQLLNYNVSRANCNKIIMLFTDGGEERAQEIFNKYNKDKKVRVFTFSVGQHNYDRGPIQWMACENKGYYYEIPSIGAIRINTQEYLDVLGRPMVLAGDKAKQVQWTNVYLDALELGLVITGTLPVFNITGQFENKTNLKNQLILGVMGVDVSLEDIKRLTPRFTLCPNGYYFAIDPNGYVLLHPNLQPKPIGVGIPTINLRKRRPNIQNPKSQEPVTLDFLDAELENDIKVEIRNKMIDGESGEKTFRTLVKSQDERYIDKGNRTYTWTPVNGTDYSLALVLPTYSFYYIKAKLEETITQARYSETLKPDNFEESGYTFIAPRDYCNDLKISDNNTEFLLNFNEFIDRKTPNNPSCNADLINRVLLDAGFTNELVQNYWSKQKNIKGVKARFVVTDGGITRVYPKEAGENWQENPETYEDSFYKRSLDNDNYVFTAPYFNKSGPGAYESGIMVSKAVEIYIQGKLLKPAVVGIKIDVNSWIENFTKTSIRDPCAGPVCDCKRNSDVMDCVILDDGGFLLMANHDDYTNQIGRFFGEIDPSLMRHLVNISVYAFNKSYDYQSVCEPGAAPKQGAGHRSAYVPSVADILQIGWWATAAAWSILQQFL
Chain of Cav1.2 (P54289 947-1103 partner limits assumed): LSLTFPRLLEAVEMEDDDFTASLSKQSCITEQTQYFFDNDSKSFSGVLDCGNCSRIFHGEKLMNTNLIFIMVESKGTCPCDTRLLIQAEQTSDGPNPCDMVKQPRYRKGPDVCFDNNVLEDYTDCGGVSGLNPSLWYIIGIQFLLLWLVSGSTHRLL
Chain of hERG (Q12809 whole entry): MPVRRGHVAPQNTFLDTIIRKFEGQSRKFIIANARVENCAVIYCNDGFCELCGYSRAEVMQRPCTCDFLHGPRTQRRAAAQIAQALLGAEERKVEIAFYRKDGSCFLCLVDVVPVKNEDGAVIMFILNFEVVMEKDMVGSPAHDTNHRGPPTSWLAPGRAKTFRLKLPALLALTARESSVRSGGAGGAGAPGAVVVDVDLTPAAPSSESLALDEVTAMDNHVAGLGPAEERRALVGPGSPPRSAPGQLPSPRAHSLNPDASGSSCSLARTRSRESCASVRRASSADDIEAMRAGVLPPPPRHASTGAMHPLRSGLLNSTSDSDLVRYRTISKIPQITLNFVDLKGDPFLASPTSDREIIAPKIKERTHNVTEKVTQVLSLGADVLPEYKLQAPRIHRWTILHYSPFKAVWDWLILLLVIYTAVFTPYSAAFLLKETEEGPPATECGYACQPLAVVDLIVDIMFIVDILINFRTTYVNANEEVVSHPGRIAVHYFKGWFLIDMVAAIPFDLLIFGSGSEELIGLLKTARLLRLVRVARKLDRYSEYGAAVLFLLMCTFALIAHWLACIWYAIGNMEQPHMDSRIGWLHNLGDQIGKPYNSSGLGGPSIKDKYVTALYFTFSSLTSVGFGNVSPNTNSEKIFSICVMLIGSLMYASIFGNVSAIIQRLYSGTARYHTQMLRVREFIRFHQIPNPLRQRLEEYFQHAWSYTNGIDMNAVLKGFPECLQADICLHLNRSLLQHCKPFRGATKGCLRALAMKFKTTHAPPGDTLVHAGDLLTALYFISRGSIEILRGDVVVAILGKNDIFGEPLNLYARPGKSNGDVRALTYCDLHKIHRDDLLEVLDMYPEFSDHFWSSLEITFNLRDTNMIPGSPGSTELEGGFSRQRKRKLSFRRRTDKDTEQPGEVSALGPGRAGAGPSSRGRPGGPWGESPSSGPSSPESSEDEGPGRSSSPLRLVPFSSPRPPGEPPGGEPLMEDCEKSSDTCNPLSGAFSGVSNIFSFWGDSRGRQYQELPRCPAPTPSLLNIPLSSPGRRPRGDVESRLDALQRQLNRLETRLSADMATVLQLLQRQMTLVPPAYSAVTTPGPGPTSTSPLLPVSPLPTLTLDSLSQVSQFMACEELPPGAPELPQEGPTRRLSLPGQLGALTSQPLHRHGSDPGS

## CCN(CC)CCNC(=O)c1c(C)[nH]c(/C=C2\C(=O)Nc3ccc(F)cc32)c1C [sunitinib]
[1]
  Ris (TdP risk flag): 1
[2]
  CAV1.2 max inhib: 61.5
  IC50: 33.4 µM
[3]; Brown dataset
  NAV1.5 max inhib: 66.4

## O=C1NC(=O)C(c2ccccc2)(c2ccccc2)N1 [phenytoin]
[4]
  Free drug concentration: 4.36 µM
[5]
  HERG maxInhib: 16.4
[1]
  Ris (TdP risk flag): 0
[2]
  CAV1.2 max inhib: 91.7
  IC50: 21.9 µM
[3]; Brown dataset
  NAV1.5 max inhib: 59.3
  IC50: 72.4 µM

## COCC(=O)O[C@]1(CCN(C)CCCc2nc3ccccc3[nH]2)CCc2cc(F)ccc2[C@@H]1C(C)C [mibefradil]
[1]
  Ris (TdP risk flag): 0
[2]
  CAV1.2 max inhib: 92.1
[3]; Brown dataset
  NAV1.5 max inhib: 100

## CCOC(=O)C1=C(C)NC(C)=C(C(=O)OC)C1c1cccc([N+](=O)[O-])c1 (stereo not drawn) [nitrendipine]
[5]; Brown dataset
  HERG maxInhib: 68.3
  IC50: 24.6 µM
[5]
  pIC50: 4.609
[1]
  Ris (TdP risk flag): 0
[2]
  CAV1.2 max inhib: 74.6
[3]; Brown dataset
  NAV1.5 max inhib: 86.3
  IC50: 21.6 µM

## O=C(O)CCCCCC/C=C/CO [CHEMBL458520]
[6]
  activity: 1

## CCCCCC=C(c1cc(Cl)c(OC)c(C(=O)O)c1)c1cc(Cl)c(OC)c(C(=O)O)c1 [CHEMBL111622]
[6]
  activity: 1

## CC(C)[C@H](NC(=O)CN)C(=O)N[C@@H](CCC(N)=O)C(=O)O [CHEMBL123454] (H-Gly-Val-Gln-OH)
[6]
  activity: 1

## CCCCc1oc2ccccc2c1C(=O)c1cc(I)c(OCCN(CC)CC)c(I)c1 [amiodarone]
[4]; experimental data file, Kramer et al. 2013
  Free drug: 0.0008 µM
[4]; negative log of free drug
  pFD: 9.097

## CC(=O)NC[C@H]1CN(c2ccc(N3CCOCC3)c(F)c2)C(=O)O1 [linezolid]
[5]; Brown dataset
  HERG maxInhib: 19.3
  IC50: 1150 µM
[5]
  pIC50: 2.94
[1]
  Ris (TdP risk flag): 0
[2]
  CAV1.2 max inhib: 70.3
  IC50: 105 µM
[3]; Brown dataset
  NAV1.5 max inhib: 9.6
  IC50: 2640 µM

## COc1cc(N)c(Cl)cc1C(=O)NC1CCN(CCCOc2ccc(F)cc2)CC1OC (stereo not drawn) [cisapride]
[1]
  Ris (TdP risk flag): 1
[2]
  CAV1.2 max inhib: 42.8
  IC50: 11.8 µM
[3]; Brown dataset
  NAV1.5 max inhib: 22.9
  IC50: 337 µM

## Cc1nc2n(c(=O)c1CCN1CCC(c3noc4cc(F)ccc34)CC1)CCCC2 [risperidone]
[4]
  Free drug concentration: 0.00 µM
[5]; Brown dataset
  HERG maxInhib: 79.7
[1]
  Ris (TdP risk flag): 1

## O=C1NCCN1CCN1CCC(c2cn(-c3ccc(F)cc3)c3ccc(Cl)cc23)CC1 [sertindole]
[1]
  Ris (TdP risk flag): 1
[2]
  CAV1.2 max inhib: 91.5
  IC50: 6.3 µM
[3]; Brown dataset
  NAV1.5 max inhib: 95.5
  IC50: 6.9 µM

## C=C[C@H]1C[N@@]2CC[C@H]1C[C@@H]2[C@@H](O)c1ccnc2ccc(OC)cc12 [quinidine]
[1]
  Ris (TdP risk flag): 1
[2]
  CAV1.2 max inhib: 58
[3]; Brown dataset
  NAV1.5 max inhib: 97.5

## CCCCCC=C(c1cc(C)c(OC)c(C(=O)OC)c1)c1cc(C)c(OC)c(C(=O)OC)c1 [CHEMBL335768]
[6]
  activity: 1

## NC(=S)Nc1cccc(OCCCCCN2CCN(c3ccccc3-c3ccccc3)C2=S)c1 [CHEMBL569085]
[6]
  activity: Found 92 actives and 860 inactive compounds. 952 CHEMBL569085 1

## CC(CC(c1ccccc1)c1ccccc1)NC(C)(C)C (stereo not drawn) [terodiline]
[1]
  Ris (TdP risk flag): 1
[2]
  CAV1.2 max inhib: 95.4
  IC50: 4.8 µM
[3]; Brown dataset
  NAV1.5 max inhib: 100
  IC50: 7.4 µM

## CNCC[C@H](Oc1cccc2ccccc12)c1cccs1 [duloxetine]
[5]
  HERG maxInhib: 96.3
[1]
  Ris (TdP risk flag): 0
[2]
  CAV1.2 max inhib: 99.8
  IC50: 2.8 µM
[3]
  NAV1.5 max inhib: 100
  IC50: 5.1 µM
